Each structure is given as a SMILES string. A value given as a limit tells only on which side of the number the result lay.

One test has as its system N27 rat dopaminergic neural cells. In words: MTT assay in N27 rat dopaminergic neural cells: inhibition of RSL3-induced cell death (ferroptosis). The class given is cell-based. Particulars: Rattus norvegicus, N27, 24 h, ferroptosis induced by 0.5 μM RSL3, 24 hours, viability by MTT. The method, then:
MTT Assay in N27 Rat Dopaminergic Neural Cells
N27 rat dopaminergic neural cells (Millipore, SCC048) were cultured in RPMI-1640 media (Wisent, 350-000) supplemented with 1×GlutaMAX (Gibco, 35050-061), 10% FBS (embryonic stem cell qualified; Wisent, 920-040), and 1× Penicillin-Streptomycin (Wisent, 450-201). Cells were grown in humidified tissue culture incubator at 37° C. with 5% CO2, for up to 10 passages. To evaluate the ability of test compounds to inhibit RSL3-induced cell death, N27 cells were seeded in clear 96-well tissue culture plates (Sarstedt, 83.3924) at a density of 15,000 cells/well. On the next day, the medium was changed to fresh complete RPMI-1640. Eight-point dilution series of test compounds were added to the cells. Then, ferroptosis was induced by addition of 0.5 μM RSL3 (vehicle-treated cells served as control). Ferrostatin-1 (Fer-1) was included in each assay as control inhibitor of ferroptosis. Plates were incubated for 24 hours at 37° C. in a tissue culture incubator, then cell viability was determined by MTT assay. Briefly, Thiazolyl Blue Tetrazolium Bromide [3-(4,5-dimethylthiazol-2-yl)-2,5-diphenyltetrazolium bromide or “MTT” ] (Sigma) stock solution (5 mg/mL in PBS, sterilized by filtration) was diluted 1:1 with complete growth medium, and added on the cells to a final concentration of 0.5 mg/mL. Cells were incubated with MTT for 4 hours at 37° C., protected from light, in a humidified, 5% CO2 atmosphere. Medium was then completely removed from the wells by gentle aspiration and converted MTT formazan crystals were dissolved in 150 μL of DMSO. Absorbance of converted dye was measured at 595 nm with background subtraction at 690 nm using the BioTek Cytation5 Microplate Reader. Blank reading (absorbance from wells containing media and vehicle only, no cells) was removed from all sample wells. Viability was calculated as a percentage of control cells (vehicle-treated cells were set as 100% viability). Dose-response curves were drawn and IC50 values were calculated using GraphPad Prism software, version 7.
A general note: Tetrazolium assays rely on reduction of a dye to a coloured formazan, in cell work by metabolically active cells.
The term IC50 denotes the concentration at which inhibition is half-maximal. A high value points to lower potency. The compound `CCC/C=C/c1nc(NC2CCCC2)c2c(n1)SCC(=O)N2` [Compound B-600, 4-(cyclopentylamino)-2-[(1E)-pent-1-en-1-yl]-5H,6H,7H-pyrimido[4,5-b][1,4]thiazin-6-one] had a 50% inhibitory concentration (IC50) of at least 3000 nM.

Consider `CCCCC(=O)c1cc2c(c(NC(C)(C)C)n1)NCC(C(F)(F)F)C2` (centres unmarked) [Compound R-830], for which the half-maximal inhibitory concentration (IC50) amounted to 36 nM. The same measure, in the same setting: with `CCCCC(OC)c1cc2c(c(Nc3ccccn3)c1)NCCC2` (centres unmarked) [Compound B-397, 6-(1-methoxypentyl)-N-(2-pyridyl)-1,2,3,4-tetrahydroquinolin-8-amine] the figure was 70 nM. Still for that read-out and setting: the value for `c1cncc(-c2ccc(NC3COC3)c(NC3CCCC3)n2)c1` [Compound H-75, N^2-cyclopentyl-N^3-(oxetan-3-yl)-6-(3-pyridyl)pyridine-2,3-diamine] was 44 nM; that for `CCCCCc1cc2c(c(Nc3ccccn3)c1)NCCC2` [Compound B-308] was 18 nM.

The compound `CCC(C)Nc1cnc(-c2ccc(C)cc2)nc1NC1CCCC1` (centres unmarked) [Compound F-69, N^4-cyclopentyl-2-(p-tolyl)-N^5-sec-butyl-pyrimidine-4,5-diamine] returned a half-maximal inhibitory concentration (IC50) of 28 nM.

Regarding `CCCC(=O)c1ccc(NC2CC(F)(F)C2)c(NC2CC(F)(F)C2)n1` [Compound P-47, 1-[5,6-bis[(3,3-difluorocyclobutyl)amino]-2-pyridyl]butan-1-one], it took 201 nM to reach half-maximal inhibition (IC50). On the same count and under the same terms, the value for `CCC/C=C/c1nc2c(c(NC3CCCC3)n1)NCCC2` [Compound B-388, N-cyclopentyl-2-[(E)-pent-1-enyl]-5,6,7,8-tetrahydropyrido [3,2-d]pyrimidin-4-amine] was 40 nM; that for `C1CNc2c(nc(C3CCCC3)nc2NC2CCCC2)C1` [Compound B-456, N,2-Dicyclopentyl-5,6,7,8-tetrahydropyrido[3,2-d]pyrimidin-4-amine] was 153 nM. Take `CCC(C)Nc1ccc(-c2cccnc2)nc1NC1CCCC1` (centres unmarked) [Compound H-74, N^2-cyclopentyl-6-(3-pyridyl)-N^3-sec-butyl-pyridine-2,3-diamine]: it took 5 nM to reach half-maximal inhibition (IC50). Compound `CC1(Nc2nc(-c3ccc(F)cc3)ccc2NC2CCOCC2)CCOC1` (centres unmarked) [Compound N-53, 6-(4-fluorophenyl)-N^2-(3-methyltetrahydrofuran-3-yl)-N^3-tetrahydropyran-4-yl-pyridine-2,3-diamine] gave a half-inhibitory concentration (IC50) of 1 nM. Still for that read-out and setting: the value for `CCCCC(=O)c1cc2c(c(NS(=O)(=O)CC(C)C)c1)NCCC2` [Compound B-251, 2-methyl-N-(6-pentanoyl-1,2,3,4-tetrahydroquinolin-8-yl)propane-1-sulfonamide] was 9300 nM; that for `CCCCC(=O)c1nc2c(c(NC(C)(C)C)n1)NCCC2` [Compound A-06, 1-[4-(tert-butylamino)-5,6,7,8-tetrahydropyrido[3,2-d]pyrimidin-2-yl]pentan-1-one] was 76 nM; that for `CCCCCc1nc(NC2CCCC2)c2c(n1)S(=O)(=O)CCN2` [Compound B-602, N-cyclopentyl-8,8-dioxo-2-pentyl-6,7-dihydro-5H-pyrimido[4,5-b][1,4]thiazin-4-amine] was at least 3000 nM. As to `CCCCC(O)c1nc2c(c(NC(C)(C)C)n1)NCCC2` (centres unmarked) [Compound A-00, 1-[4-(tert-butylamino)-5,6,7,8-tetrahydropyrido[3,2-d]pyrimidin-2-yl]pentan-1-ol], half-maximal inhibition (IC50) required 139 nM. Same read-out and setting: the value for `COc1ccc(-c2ccc(NC3COC3)c(NC3CCCC3)n2)cc1` [Compound H-87, N^2-cyclopentyl-6-(4-methoxyphenyl)-N^3-(oxetan-3-yl)pyridine-2,3-diamine] was 3 nM; that for `CCCCC(=O)c1cc2c(c(Nc3ccccn3)c1)NCCC2` [Compound B-249, 1-{8-[(pyridin-2-yl)amino]-1,2,3,4-tetrahydroquinolin-6-yl}pentan-1-one] was 343 nM. The same measure, in the same setting: the value for `c1cc(-c2nc3c(c(NC4CCCC4)n2)NCCC3)ccn1` [Compound A-34, N-cyclopentyl-2-(4-pyridyl)-5,6,7,8-tetrahydropyrido[3,2-d]pyrimidin-4-amine] was 57 nM; that for `CCC(C)Nc1ccc(-c2ccncc2)nc1NC1CCCC1` (centres unmarked) [Compound H-76, N^2-cyclopentyl-6-(4-pyridyl)-N^3-sec-butyl-pyridine-2,3-diamine] was 6 nM. Same read-out and setting: the value for `Cc1ccc(-c2nc3c(c(NC4CCCC4)n2)NCCC3)cc1` [Compound A-32, N-cyclopentyl-2-(p-tolyl)-5,6,7,8-tetrahydropyrido[3,2-d]pyrimidin-4-amine] was 6 nM.

As for `CCC(C)Nc1ccc(-c2ccc(OC)cc2)nc1NC1CCCC1` (centres unmarked) [Compound H-86, N^2-cyclopentyl-6-(4-methoxyphenyl)-N^3-sec-butyl-pyridine-2,3-diamine], inhibition was half-maximal at 8 nM (IC50). The same measure, in the same setting: with `CCC(C)Nc1cnc(-c2cncnc2)nc1NC1CCCC1` (centres unmarked) [Compound F-81, N^4-cyclopentyl-2-pyrimidin-5-yl-N^5-sec-butyl-pyrimidine-4,5-diamine] the figure was 121 nM.

For the compound `CCC(C)Nc1cnc(-c2cccnc2)nc1NC1CCCC1` (centres unmarked) [Compound F-78, N^4-cyclopentyl-2-(3-pyridyl)-N^5-sec-butyl-pyrimidine-4,5-diamine], inhibition was half-maximal at 89 nM (IC50). The same measure, in the same setting: with `CCCCC(=O)c1cc2c(c(NC3CCCC3)c1)OCCC2` [Compound B-035, 1-[8-(cyclopentylamino)-3,4-dihydro-2H-1-benzopyran-6-yl]pentan-1-one] the figure was over 3000 nM; with `OC(c1ccccc1)c1nc2c(c(NC3CCCC3)n1)NCCC2` (centres unmarked) [Compound A-10, [4-(cyclopentylamino)-5,6,7,8-tetrahydropyrido[3,2-d]pyrimidin-2-yl]-phenyl-methanol], 71 nM. `CCCCC(=O)c1cc2c(c(OC3CCCC3)c1)NCCC2` [Compound Q-980, 1-[8-(cyclopentoxy)-1,2,3,4-tetrahydroquinolin-6-yl]pentan-1-one]: the concentration for half-maximal inhibition (IC50) was over 3000 nM. Still for that read-out and setting: with `Cc1ccc(-c2nc(NC3CCCC3)c3c(n2)C(=O)N(C)C(C)(C)N3)cc1` [Compound K-36, 8-(cyclopentylamino)-2,2,3-trimethyl-6-(p-tolyl)-1H-pyrimido[5,4-d]pyrimidin-4-one] the figure was 525 nM.

`CC1(Nc2nc(-c3cccnc3)ccc2NC2CCOC2)CCOC1` [Compound L-42, N^2-(3-methyltetrahydrofuran-3-yl)-6-(3-pyridyl)-N^3-tetrahydrofuran-3-yl-pyridine-2,3-diamine]: half-maximal inhibition (IC50) was put at 285 nM. Same read-out and setting: the value for `C(#Cc1nc2c(c(NC3CCCC3)n1)NCCC2)c1ccccc1` [Compound C-91, N-cyclopentyl-2-(2-phenylethynyl)-5,6,7,8-tetrahydropyrido[3,2-d]pyrimidin-4-amine] was 35 nM. The same measure, in the same setting: with `CCCCC(=O)c1cc2c(c(NC3CCCC3)n1)NCCC2` [Compound B-647, 1-[8-(cyclopentylamino)-1,2,3,4-tetrahydro-1,7-naphthyridin-6-yl]pentan-1-one] the figure was 8 nM; with `Cc1ccc(-c2ccc(NC3COC3)c(NC3CCCC3)n2)cc1` [Compound H-81, N^2-cyclopentyl-N^3-(oxetan-3-yl)-6-(p-tolyl)pyridine-2,3-diamine], 5 nM; with `CCCCC(=O)c1cc2c(c(N3CCCC3=O)c1)NCCC2` [Compound Q-979, 1-(6-pentanoyl-1,2,3,4-tetrahydroquinolin-8-yl)pyrrolidin-2-one], 1150 nM. Still for that read-out and setting: with `CCCCC(=O)c1nc2c(c(N3CCCC3)n1)NCCC2` [Compound A-18, 1-(4-pyrrolidin-1-yl-5,6,7,8-tetrahydropyrido[3,2-d]pyrimidin-2-yl)pentan-1-one] the figure was 217 nM.

For `CCCCCc1nc(NC2CCCC2)c2c(n1)SCCN2` [Compound B-601, N-cyclopentyl-2-pentyl-5H,6H,7H-pyrimido[4,5-b][1,4]thiazin-4-amine], half-maximal inhibition (IC50) required 3 nM. The same measure, in the same setting: the value for `CCCCC(O)c1nc2c(c(NC3CCCC3)n1)NCCC2` (centres unmarked) [Compound C-79, 1-[4-(cyclopentylamino)-5,6,7,8-tetrahydropyrido[3,2-d]pyrimidin-2-yl]pentan-1-ol] was 112 nM.

Still in this test, the particulars now being: Rattus norvegicus, N27, 24 h, ferroptosis induced by 0.5 μM RSL3, 24 hours, viability by MTT, cell unit uM.
`CCCCC(=O)c1nc2c(c(Nc3ccccn3)n1)NCCC2` [Compound G-65, 1-[4-(2-pyridylamino)-5,6,7,8-tetrahydropyrido[3,2-d]pyrimidin-2-yl]pentan-1-one]: the IC50 is over 10000 nM.

Take `CCCCC(O)c1nc2c(c(Nc3ccccn3)n1)NCCC2` (centres unmarked) [Compound G-63, 1-[4-(2-pyridylamino)-5,6,7,8-tetrahydropyrido[3,2-d]pyrimidin-2-yl]pentan-1-ol]: the half-maximal inhibitory concentration (IC50) is over 10000 nM.

Still in this test, the particulars now being: Rattus norvegicus, ferroptosis induced by 0.5 μM RSL3, 24 hours, viability by MTT.
In turn, `CCCCCc1nc(NC2CCCC2)c2c(n1)OCCN2` [Compound B-711, N-cyclopentyl-2-pentyl-5H,6H,7H-pyrimido[4,5-b][1,4]oxazin-4-amine] showed an IC50 of 41 nM.

Values taken from patent US20220144826A1, “Heteroaromatic and Heterobicyclic Aromatic Derivatives for the Treatment of Ferroptosis-Related Disorders” (COLLABORATIVE MEDICINAL DEVELOPMENT, LLC, priority 2019, published 2022).
